Results on one molecule are retold here after patent US7968599B2, “Fast release solid formulation, preparation and use thereof” (Intervet International B.V., priority 2007, dated 2011).

SMILES strings stand for the structures.

This series can be described thus: Dissolution / solubility rate profile, USP apparatus 2 with paddle agitation. In kind it is physicochemical. Conditions: Milli-Q water 25° C., paddle 50 rpm, final 0.1 mg/mL florfenicol. The procedure:
To determine the solubility profile of different formulations, dissolution was performed using USP apparatus 2 with paddle agitation at 50 rpm. The dissolution medium was Milli-Q water maintained at a temperature of 25° C. The formulations were added directly to the water in the correct amount to achieve a final concentration of 0.1 mg/mL of florfenicol. Aliquots of the resulting solution were withdrawn and analyzed using either UV-VIS spectrophotometry or HPLC, the latter to exclude excipient contribution or degradation of florfenicol. For HPLC analysis, an organic/aqueous mobile phase was used for the separation on a C18, reverse phase column. Detection was performed by UV absorption spectrometry. The percent dissolved was calculated versus an external reference standard prepared at the nominal concentration of the analyte.

In the case of `CS(=O)(=O)c1ccc([C@@H](O)[C@@H](CF)NC(=O)C(Cl)Cl)cc1` (relative stereo) [florfenicol, [R-(R*,S*)]-2,2-Dichloro-N-[1-(fluoromethyl)-2-hydroxy-2-[4-(methylsulfonyl)phenyl]-ethyl]acetamide], the “percent florfenicol dissolved within 15 minutes” value (15 minutes) is recorded as “approximately 25%”. For the same molecule, for the setting “60 minutes”, the “percent florfenicol dissolved within 60 minutes” value is given as “approximately 43%”.
